Measurements published in US6365191B1, “Formulations of paclitaxel, its derivatives or its analogs entrapped into nanoparticles of polymeric micelles, process for preparing same and the use thereof” (Dabur Research Foundation, priority 1999, dated 2002).

Assay: Stability of the resulting drug solutions (paclitaxel in nanoparticles of polymeric micelles)
Assay type: physicochemical
Method: (§1) The polymer (5 mg) was dissolved in 5 ml of the diluting fluid followed by the addition of the anionic surfactant sodium deoxycholate (5 mg) to obtain a clear solution. Paclitaxel solution in absolute alcohol (20 mg/ml) was then added to the solution of polymer and the surfactant to obtain drug concentrations of 0.1, 0.15 and 0.2 mg/ml. Different diluting fluids were tried and the stability of the resulting drug solutions are tabulated below:
(§2) The polymer (5 mg) was dissolved in 5 ml of the diluting fluid followed by the addition of the anionic surfactant sodium deoxycholate (5 mg) to obtain a clear solution. Paclitaxel solution in absolute alcohol (20 mg/ml) was then added to the solution of polymer and the surfactant to get drug concentrations of 0.2, 0.25 and 0.3 mg/ml. The stability of the resulting drug solutions are tabulated below:
as §1, with “of” for “of 0.1, 0.15 and”
as §2, with “solution. pH of the resulting solution was adjusted with sodium citrate.” for “solution.”, “obtain” for “get”, “0.2” for “0.2, 0.25 and 0.3”, “Results” for “The stability of the resulting drug solutions”
The requisite amount of polymer was dissolved in 5 ml of the diluting fluid followed by the addition of requisite amount of anionic surfactant sodium deoxycholate to obtain the concentrations shown in the table below. pH of the resulting solution was adjusted to 6.4-6.8 with sodium citrate. Paclitaxel solution in absolute alcohol (20 mg/ml) was then added to the solution of polymer and the surfactant to obtain drug concentrations of 0.2 mg/ml. Results are tabulated below:
The polymer (0.625 mg) was dissolved in 5 ml of the diluting fluid followed by the addition of the anionic surfactant sodium deoxycholate to obtain a clear solution. pH of the resulting solution was adjusted to 6.4-6.8 with sodium citrate.
Paclitaxel solution in absolute alcohol (20 mg/ml) was then added to the solution of polymer and the surfactant to obtain drug concentrations of 0.2 mg/ml. Results are tabulated below:
The requisite amount of the polymer was dissolved in 5 ml of the diluting fluid followed by the addition of requisite amount of the anionic surfactant sodium deoxycholate to obtain the concentrations shown in the table below. pH of the resulting solution was adjusted to 6.4-6.8 with sodium citrate. Paclitaxel solution in absolute alcohol (20 mg/ml) was then added to the solution of polymer and the surfactant to get drug concentrations of 0.2, 0.5, 0.6, 0.7, 0.8, 2.4, 3.2, 4.0, and 10 mg/ml. Results are tabulated below:
The polymer (1.5 mg) was dissolved in 5 ml of the diluting fluid followed by the addition of the anionic surfactant sodium to obtain concentrations of 0, 0.10, 0.15, 0.20 and 0.25 mg/ml. pH of the resulting solution was adjusted to 6.4-6.8 with sodium citrate. Paclitaxel solution in absolute alcohol (20 mg/ml) was then added to the solution of polymer and the surfactant to obtain drug concentrations of 0.6 mg/ml. Results are tabulated below:
The required amount of the drug solution (3 ml) is added to the vehicle to obtain a drug concentration of 0.6 mg/ml. The perfusion fluid is stable for more than 12 hrs without any apparent signs of precipitation of drug. Stability is also indicated by the fact that more than 90% of the drug is available in solution form at the end of 24 hrs, when analyzed by HPLC.

Stability (Examples 1-9, row 1: Water for Injection, polymer 1 mg/ml, sodium DOC 1 mg/ml, paclitaxel 0.10 mg/ml, 10% loading): <1 h
Stability (Examples 1-9, row 2: Water for Injection, polymer 1 mg/ml, sodium DOC 1 mg/ml, paclitaxel 0.15 mg/ml, 15% loading): <1 h
Stability (Examples 1-9, row 3: Water for Injection, polymer 1 mg/ml, sodium DOC 1 mg/ml, paclitaxel 0.20 mg/ml, 20% loading): <1 h
Stability (Examples 1-9, row 4: Normal Saline, polymer 1 mg/ml, sodium DOC 1 mg/ml, paclitaxel 0.10 mg/ml, 10% loading): <1 h
Stability (Examples 1-9, row 5: Normal Saline, polymer 1 mg/ml, sodium DOC 1 mg/ml, paclitaxel 0.15 mg/ml, 15% loading): <1 h
Stability (Examples 1-9, row 6: Normal Saline, polymer 1 mg/ml, sodium DOC 1 mg/ml, paclitaxel 0.20 mg/ml, 20% loading): <1 h
Stability (Examples 1-9, row 7: 5% Dextrose, polymer 1 mg/ml, sodium DOC 1 mg/ml, paclitaxel 0.10 mg/ml, 10% loading): >8 h
Stability (Examples 1-9, row 8: 5% Dextrose, polymer 1 mg/ml, sodium DOC 1 mg/ml, paclitaxel 0.15 mg/ml, 15% loading): >6 h
Stability (Examples 1-9, row 9: 5% Dextrose, polymer 1 mg/ml, sodium DOC 1 mg/ml, paclitaxel 0.20 mg/ml, 20% loading): >4 h
Stability (Examples 10-12, row 1: 5% Dextrose, polymer 1 mg/ml, sodium DOC 1 mg/ml, paclitaxel 0.20 mg/ml, 20% loading): >4 h
Stability (Examples 10-12, row 2: 5% Dextrose, polymer 1 mg/ml, sodium DOC 1 mg/ml, paclitaxel 0.25 mg/ml, 25% loading): <4 h
Stability (Examples 10-12, row 3: 5% Dextrose, polymer 1 mg/ml, sodium DOC 1 mg/ml, paclitaxel 0.30 mg/ml, 30% loading): <4 h
Stability (Examples 13-14, row 1: 5% Dextrose (pH 5.1), polymer 1 mg/ml, sodium DOC 1 mg/ml, paclitaxel 0.20 mg/ml, 20% loading): >4 h
Stability (Examples 13-14, row 2: 10% Dextrose (pH 5.1), polymer 1 mg/ml, sodium DOC 1 mg/ml, paclitaxel 0.20 mg/ml, 20% loading): >6 h
Stability (Examples 15-17, row 1: 10% Dextrose (pH 3.9), polymer 1 mg/ml, sodium DOC 1 mg/ml, sodium citrate 0.00 mg/ml, pH 6.28, paclitaxel 0.20 mg/ml): <1 h
Stability (Examples 15-17, row 2: 10% Dextrose (pH 3.9), polymer 1 mg/ml, sodium DOC 1 mg/ml, sodium citrate 0.06 mg/ml, pH 6.36, paclitaxel 0.20 mg/ml): >6 h
Stability (Examples 15-17, row 3: 10% Dextrose (pH 3.9), polymer 1 mg/ml, sodium DOC 1 mg/ml, sodium citrate 0.12 mg/ml, pH 6.53, paclitaxel 0.20 mg/ml): >4 h
Stability (Examples 19-23, row 1: 10% Dextrose, polymer 1 mg/ml, sodium DOC 1 mg/ml, pH 6.45, paclitaxel 0.20 mg/ml): >6 h
Stability (Examples 19-23, row 2: 10% Dextrose, polymer 0.5 mg/ml, sodium DOC 0.5 mg/ml, pH 6.44, paclitaxel 0.20 mg/ml): >6 h
Stability (Examples 19-23, row 3: 10% Dextrose, polymer 0.25 mg/ml, sodium DOC 0.25 mg/ml, pH 6.46, paclitaxel 0.20 mg/ml): >6 h
Stability (Examples 19-23, row 4: 10% Dextrose, polymer 0.125 mg/ml, sodium DOC 0.125 mg/ml, pH 6.47, paclitaxel 0.20 mg/ml): >6 h
Stability (Examples 19-23, row 5: 10% Dextrose, polymer 0.0625 mg/ml, sodium DOC 0.0625 mg/ml, pH 6.44, paclitaxel 0.20 mg/ml): <6 h
Stability (Examples 24-27, row 1: 10% Dextrose, polymer 0.125 mg/ml, sodium DOC 0.03125 mg/ml, pH 6.4-6.8, paclitaxel 0.20 mg/ml): <1 h
Stability (Examples 24-27, row 2: 10% Dextrose, polymer 0.125 mg/ml, sodium DOC 0.0625 mg/ml, pH 6.4-6.8, paclitaxel 0.20 mg/ml): <2 h
Stability (Examples 24-27, row 3: 10% Dextrose, polymer 0.125 mg/ml, sodium DOC 0.09375 mg/ml, pH 6.4-6.8, paclitaxel 0.20 mg/ml): >6 h
Stability (Examples 24-27, row 4: 10% Dextrose, polymer 0.125 mg/ml, sodium DOC 0.125 mg/ml, pH 6.4-6.8, paclitaxel 0.20 mg/ml): >6 h
Stability (Examples 28-35: 10% Dextrose, polymer 0.125 mg/ml, sodium DOC 0.125 mg/ml, pH 6.4-6.8, paclitaxel 0.20 mg/ml): >6 h
Stability (Examples 28-35: 10% Dextrose, polymer 0.125 mg/ml, sodium DOC 0.125 mg/ml, pH 6.4-6.8, paclitaxel 0.50 mg/ml): <4 h
Stability (Examples 28-35: 10% Dextrose, polymer 0.125 mg/ml, sodium DOC 0.125 mg/ml, pH 6.4-6.8, paclitaxel 0.80 mg/ml): <2 h
Stability (Examples 28-35: 10% Dextrose, polymer 0.125 mg/ml, sodium DOC 0.125 mg/ml, pH 6.4-6.8, paclitaxel 2.4 mg/ml): <1 h
Stability (Examples 28-35: 10% Dextrose, polymer 0.125 mg/ml, sodium DOC 0.125 mg/ml, pH 6.4-6.8, paclitaxel 3.2 mg/ml): <0.5 h
Stability (Examples 28-35: 10% Dextrose, polymer 0.125 mg/ml, sodium DOC 0.125 mg/ml, pH 6.4-6.8, paclitaxel 4.0 mg/ml): <0.25 h
Stability (Examples 28-35: 10% Dextrose, polymer 0.125 mg/ml, sodium DOC 0.125 mg/ml, pH 6.4-6.8, paclitaxel 10.0 mg/ml): <0.083 h
Stability (Examples 28-35: 10% Dextrose, polymer 0.2 mg/ml, sodium DOC 0.2 mg/ml, pH 6.4-6.8, paclitaxel 0.80 mg/ml): <3 h
Stability (Examples 28-35: 10% Dextrose, polymer 0.3 mg/ml, sodium DOC 0.3 mg/ml, pH 6.4-6.8, paclitaxel 0.50 mg/ml): >6 h
Stability (Examples 28-35: 10% Dextrose, polymer 0.3 mg/ml, sodium DOC 0.3 mg/ml, pH 6.4-6.8, paclitaxel 0.60 mg/ml): <6 h
Stability (Examples 28-35: 10% Dextrose, polymer 0.3 mg/ml, sodium DOC 0.3 mg/ml, pH 6.4-6.8, paclitaxel 0.70 mg/ml): <4 h
Stability (Examples 28-35: 10% Dextrose, polymer 0.3 mg/ml, sodium DOC 0.3 mg/ml, pH 6.4-6.8, paclitaxel 0.80 mg/ml): <2 h
Stability (Examples 36-40, row 1: 10% Dextrose, polymer 0.3 mg/ml, sodium DOC 0 mg/ml, pH 6.4-6.8, paclitaxel 0.60 mg/ml): <0.5 h
Stability (Examples 36-40, row 2: 10% Dextrose, polymer 0.3 mg/ml, sodium DOC 0.10 mg/ml, pH 6.4-6.8, paclitaxel 0.60 mg/ml): <1 h
Stability (Examples 36-40, row 3: 10% Dextrose, polymer 0.3 mg/ml, sodium DOC 0.15 mg/ml, pH 6.4-6.8, paclitaxel 0.60 mg/ml): <4 h
Stability (Examples 36-40, row 4: 10% Dextrose, polymer 0.3 mg/ml, sodium DOC 0.2 mg/ml, pH 6.4-6.8, paclitaxel 0.60 mg/ml): >8 h
Stability (Examples 36-40, row 5: 10% Dextrose, polymer 0.3 mg/ml, sodium DOC 0.25 mg/ml, pH 6.4-6.8, paclitaxel 0.60 mg/ml): >8 h
Compound: CC(=O)O[C@H]1C(=O)[C@@]2(C)[C@H]([C@H](OC(=O)c3ccccc3)[C@]3(O)C[C@H](OC(=O)[C@H](O)[C@@H](NC(=O)c4ccccc4)c4ccccc4)C(C)=C1C3(C)C)[C@]1(OC(C)=O)CO[C@@H]1C[C@@H]2O [Paclitaxel, paclitaxel]
